The values below come from article PMC2879007 (Biochemical pharmacology, 2010).

Series [1] is described as follows: serum pharmacokinetics in Tg-CYP2D6. In kind it is in vivo, mice.
Series [2] relates to human CYP2D6 EM hepatocytes. The series is described as follows: 5-MeO-DMT depletion and bufotenine formation in human CYP2D6 EM hepatocytes. As to conditions: CYP2D6 EM hepatocytes.
Series [3] can be described thus: serum pharmacokinetics in wild-type FVB/N mice. Particulars: for Cmax / MRT / Tmax / half-life: FVB/N (wild-type), mouse, ip. In kind it is in vivo.
For series [4], the system named is human CYP2D6 PM hepatocytes. The series is described as follows: 5-MeO-DMT depletion and bufotenine formation in human CYP2D6 PM hepatocytes. Particulars: CYP2D6 PM hepatocytes, even co-incubated with harmaline.
Another series has as its target purified human MAO-A. Particulars: reversible competitive inhibitor; cited from earlier work.
Where [5] appears, read: Tg-CYP2D6 (CYP2D6-humanized), mouse, serum, ip, 2 mg/kg.
[6] abbreviates: Tg-CYP2D6 (CYP2D6-humanized), mouse, serum, ip, 20 mg/kg.
Where [7] appears, read: wild-type mice, 5-MeO-DMT 2 mg/kg i.p., harmaline 5 mg/kg i.p.

The Cmax is the highest concentration seen after dosing. One may read the MRT as the average time that molecules of a dose stay in the body. As a reminder, the Tmax is the time from dosing to the highest level. One may read the half-life as how long it takes for the measured level to halve. Low readings indicate rapid decline, high ones slow decline. Take `CN(C)CCc1c[nH]c2ccc(O)cc12` [Bufotenine, 5-hydroxy-N,N-dimethyltryptamine]: the “higher systemic exposure in Tg-CYP2D6 mice than wild-type mice” value in series [1] (20 mg/kg 5-MeO-DMT i.p.) is 60%. For the same compound, the Cmax in series [1] (setting [5]) amounted to 53 ± 13 nM; in series [3] (serum, 2 mg/kg), 51.4 ± 9.1 nM; in series [3] (serum, 20 mg/kg), 210 ± 54 nM. Besides, the MRT is 33.7 min in series [1] (setting [5]); 52.8 min in series [1] (setting [6]); 54.9 min in series [3] (serum, 2 mg/kg); 55.8 min in series [3] (serum, 20 mg/kg). Besides, the Tmax in series [1] (setting [5]) was 8.8 min; in series [1] (setting [6]), 27.5 min; in series [3] (serum, 2 mg/kg) it was 11.3 min; in series [3] (serum, 20 mg/kg) it was 21.3 min. The half-life in series [1] (setting [5]) is 20.7 ± 9.8 min; in series [1] (setting [6]), 18.5 ± 1.5 min; in series [3] (serum, 2 mg/kg), 33 ± 26 min; in series [3] (serum, 20 mg/kg), 25.4 ± 5.3 min. Moreover, the “AUC(Bufotenine)/AUC(5−MeO−DMT)” value in series [1] (Tg-CYP2D6 mice, 2 mg/kg 5-MeO-DMT alone i.p.) is on record as 8.5 ± 2.8%; in series [1] (Tg-CYP2D6 mice, 2 mg/kg 5-MeO-DMT i.p. with 5 mg/kg harmaline i.p. pretreatment), 24.0 ± 3.3% ^a, ^b; in series [3] (wild-type mice, 2 mg/kg 5-MeO-DMT alone i.p.), 10.5 ± 4.4%; in series [3] (wild-type mice, 2 mg/kg 5-MeO-DMT i.p. with 5 mg/kg harmaline i.p. pretreatment), 15.1 ± 2.9%. For the same compound, the “increase of systemic exposure (AUC0→∞) by harmaline pre-treatment” value in series [1] (Tg-CYP2D6 mice, 5-MeO-DMT 2 mg/kg i.p., harmaline 5 mg/kg i.p.) was determined as 9.9 fold; in series [3] (setting [7]) it was 6.1 fold. For the same compound, the “AUC0→∞” value in series [1] (serum, Tg-CYP2D6 mice, 2 mg/kg 5-MeO-DMT alone i.p.) is given as 1.82 ± 0.74 µmol·min/L; in series [3] (serum, wild-type mice, 2 mg/kg 5-MeO-DMT alone i.p.), 2.69 ± 1.21 µmol·min/L. Moreover, the entries for the “bufotenine formation from 5-MeO-DMT” value in series [2] and in series [4] were “only detected in incubations with CYP2D6 EM hepatocytes” and “could not produce detectable bufotenine”, respectively. In series [3] (setting [7]), the “increase of Cmax by co-administered harmaline” value was “about 2.6 fold”. For the same compound, in series [3] (setting [7]), the “increase of MRT by co-administered harmaline” value is about 1.8 fold.

A word on the Ki: it is a dissociation constant, usually derived from enzyme kinetics or from competition with a known ligand. Turning to `COc1ccc2c3c([nH]c2c1)C(C)=NCC3` [Harmaline], the inhibitory constant (Ki) at purified human MAO-A was 48 nM.
